The values below come from ChEMBL document CHEMBL6096724, “Sulfonium Moieties as Ammonium Bioisosteres: Novel Ligands for the Alpha7 Nicotinic Acetylcholine Receptor” (J Med Chem, 2025).

The target of test [1] is T1, Neuronal acetylcholine receptor subunit alpha-7 (Homo sapiens, UniProt P36544). The experiment in a line: Silent agonist activity at human alpha7 nAChR expressed in acetylcholine-treated xenopus laevis oocytes at 30 uM in presence of PNU-120596 by two electrode voltage-clamp assay. The class given is cell-based. Conditions: Oocyte.
For test [2], the target named is T1, Neuronal acetylcholine receptor subunit alpha-7. Description: Desensitization of human alpha7 nAChR expressed in acetylcholine-treated xenopus laevis oocytes at 30 uM pretreated with acetylcholine followed by compound treatment and re-treatment of acetylcholine by two electrode voltage-clamp assay. The class given is cell-based. To be noted: Oocyte. (Two-electrode voltage clamp holds a large cell at a set potential and records current.)

For test [3] the target is unchanged. The experiment in a line: Agonist activity at human alpha7 nAChR expressed in xenopus laevis oocytes assessed as activation of acetylcholine-induced response by two electrode voltage-clamp assay. The class given is cell-based, Oocyte.
For test [4] the target is unchanged. The experiment in a line: Agonist activity at human alpha7 nAChR expressed in xenopus laevis oocytes assessed as activation of acetylcholine-induced response by two electrode voltage-clamp assay (reference value: 1). To be noted: Oocyte, filed as agonist. The class given is cell-based.
For test [5] the target is unchanged. Description: Desensitization of human alpha7 nAChR expressed in acetylcholine-treated xenopus laevis oocytes at 30 uM by two electrode voltage-clamp assay. The class given is cell-based. Conditions: Oocyte.
For test [6] the target is unchanged. The experiment in a line: Antagonist activity at human alpha7 nAChR expressed in xenopus laevis oocytes assessed as inhibition of acetylcholine-induced response by two electrode voltage-clamp assay. The test is classed as cell-based, Oocyte.
Test [7] shares this target. The experiment in a line: Antagonist activity at human alpha7 nAChR expressed in acetylcholine-treated xenopus laevis oocytes at 30 uM by two electrode voltage-clamp assay. To be noted: Oocyte, filed as antagonist. The class given is cell-based.
In test [8] the target is T2, Neuronal acetylcholine receptor subunit alpha-9 (Homo sapiens, UniProt Q9UGM1). The experiment in a line: Antagonist activity at human alpha9 nAChR expressed in xenopus laevis oocytes assessed as inhibition of acetylcholine-induced response by two electrode voltage-clamp assay. The test is classed as cell-based, Oocyte.
For test [9], the system named is Mus musculus. Description: Effect on locomotor activity in C57BL/6J mouse model of CFA-induced chronic inflammatory pain at 1 mg/kg, ip measured for 0.5 to 6 hrs. The test is classed as functional, organism-based. Conditions: time 0.5-6 hrs.
In test [10] the test system is Mus musculus. Description: Anti-nociceptive effect in CFA C57BL/6J mouse model with alpha7 nAChR knockout at 1 mg/kg, ip measured after 3 days. The test is classed as functional, organism-based. Conditions: time 3.0 day.
In test [11] the target is T1, Neuronal acetylcholine receptor subunit alpha-7. The experiment in a line: Silent agonist activity at human alpha7 nAChR expressed in acetylcholine-treated xenopus laevis oocytes assessed as potentiated response at 30 uM in presence of PNU-120596 by two electrode voltage-clamp assay. The test is classed as cell-based. To be noted: Oocyte, filed as agonist.
Test [12] concerns Mus musculus. The experiment in a line: Anti-inflammatory activity in C57BL/6J mouse model of CFA-induced chronic inflammatory pain assessed as reduction in paw edema at 1 mg/kg, ip measured for 0.5 to 6 hrs. The class given is functional, organism-based. To be noted: time 0.5-6 hrs.
For test [13], the system named is Mus musculus. Description: Anti-allodynic effect in C57BL/6J mouse model of CFA-induced chronic inflammatory pain assessed as reduction in mechanical hypersensitivity at 0.3 mg/kg, ip measured after 1 hr. The test is classed as functional, organism-based.
In test [14] the test system is Mus musculus. Description: Anti-allodynic effect in C57BL/6J mouse model of CFA-induced chronic inflammatory pain assessed as reduction in mechanical hypersensitivity at 1 mg/kg, ip measured for 1 hr relative to control. Also noted: scale not given: the % may be the effect or the level left. The test is classed as functional.
The target of test [15] is T1, Neuronal acetylcholine receptor subunit alpha-7. The experiment in a line: Silent agonist activity at human alpha7 nAChR expressed in acetylcholine-treated xenopus laevis oocytes assessed as relative response at 30 uM by two electrode voltage-clamp assay. The test is classed as cell-based. To be noted: Oocyte, filed as agonist.
In test [16] the test system is Mus musculus. Description: Effect on von Frey responses in C57BL/6J mouse model of CFA-induced chronic inflammatory pain at 0.3 to 1 mg/kg, ip measured for 0.5 to 6 hrs. The class given is functional, organism-based. Conditions: dose 0.3-1 mg/kg, time 0.5-6 hrs.
Test [17] has as its system Mus musculus. Description: Anti-allodynic effect in C57BL/6J mouse model of CFA-induced chronic inflammatory pain assessed as reduction in mechanical hypersensitivity at 0.3 to 1 mg/kg, ip measured for 6 hrs. The class given is functional, organism-based. To be noted: dose 0.3-1 mg/kg.
Test [18] deals with T2, Neuronal acetylcholine receptor subunit alpha-9. The experiment in a line: Activation of human alpha9 nAChR expressed in xenopus laevis oocytes at 30 uM by two electrode voltage-clamp assay. The test is classed as cell-based. Conditions: Oocyte.
Test [19] has the same target. The experiment in a line: Silent agonist activity at human alpha9 nAChR expressed in acetylcholine-treated xenopus laevis oocytes at 30 uM by two electrode voltage-clamp assay. The test is classed as cell-based. To be noted: Oocyte, filed as agonist.
Test [20] deals with Mus musculus. The experiment in a line: Anti-allodynic effect in C57BL/6J mouse model of CFA-induced chronic inflammatory pain assessed as reduction in mechanical hypersensitivity at 3 mg/kg, ip measured after 1 hr. The test is classed as functional, organism-based.
Test [21] concerns Mus musculus. The experiment in a line: Anti-allodynic effect in C57BL/6J mouse model of CFA-induced chronic inflammatory pain assessed as reduction in mechanical hypersensitivity at 3 mg/kg, ip measured after 6 hrs. The test is classed as functional, organism-based.
For test [22], the target named is T2, Neuronal acetylcholine receptor subunit alpha-9. The experiment in a line: Agonist activity at human alpha9 nAChR expressed in xenopus laevis oocytes assessed as activation of acetylcholine-induced response by two electrode voltage-clamp assay (reference value: 1). The class given is cell-based. Conditions: Oocyte, filed as agonist.
For test [23] the target is unchanged. Description: Agonist activity at human alpha9 nAChR expressed in xenopus laevis oocytes assessed as activation of acetylcholine-induced response by two electrode voltage-clamp assay. The class given is cell-based, Oocyte.
Test [24] relates to Mus musculus. Description: Anti-inflammatory activity in C57BL/6J mouse model of CFA-induced chronic inflammatory pain assessed as reduction in paw edema at 1 to 3 mg/kg, ip measured for 0.5 to 6 hrs. The test is classed as functional, organism-based. To be noted: dose 1-3 mg/kg, time 0.5-6 hrs.
In test [25] the test system is Mus musculus. The experiment in a line: Effect on von Frey responses in C57BL/6J mouse model of CFA-induced chronic inflammatory pain at 1 to 3 mg/kg, ip measured for 0.5 to 6 hrs. The test is classed as functional, organism-based. To be noted: dose 1-3 mg/kg, time 0.5-6 hrs.
For test [26], the system named is Mus musculus. Description: Effect on locomotor activity in C57BL/6J mouse model of CFA-induced chronic inflammatory pain at 3 mg/kg, ip measured for 0.5 to 6 hrs. To be noted: time 0.5-6 hrs. The class given is functional, organism-based.
Test [27] deals with T1, Neuronal acetylcholine receptor subunit alpha-7. The experiment in a line: Desensitization of human alpha7 nAChR expressed in acetylcholine-treated xenopus laevis oocytes at 30 uM pretreated with acetylcholine followed by compound treatment and re-treatment of acetylcholine thrice by two electrode voltage-clamp assay. The test is classed as cell-based. Conditions: Oocyte.

Calls of active or inactive are those of the source. No cut-off for these calls is given here.

T1 sequence (P36544 whole entry): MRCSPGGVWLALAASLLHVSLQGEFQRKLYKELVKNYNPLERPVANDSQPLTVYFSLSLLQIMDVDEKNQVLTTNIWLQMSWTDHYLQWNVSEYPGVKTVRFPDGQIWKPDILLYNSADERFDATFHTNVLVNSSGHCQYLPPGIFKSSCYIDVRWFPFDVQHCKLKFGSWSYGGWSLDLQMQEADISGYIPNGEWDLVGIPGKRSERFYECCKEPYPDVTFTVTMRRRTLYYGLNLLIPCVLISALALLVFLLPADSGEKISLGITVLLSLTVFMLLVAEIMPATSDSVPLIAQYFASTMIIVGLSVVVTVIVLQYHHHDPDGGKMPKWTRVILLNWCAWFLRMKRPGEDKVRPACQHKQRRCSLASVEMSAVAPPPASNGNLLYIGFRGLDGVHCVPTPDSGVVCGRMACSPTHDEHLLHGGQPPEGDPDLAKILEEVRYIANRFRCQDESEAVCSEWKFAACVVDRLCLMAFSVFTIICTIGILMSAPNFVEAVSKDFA
T2 sequence (Q9UGM1 whole entry): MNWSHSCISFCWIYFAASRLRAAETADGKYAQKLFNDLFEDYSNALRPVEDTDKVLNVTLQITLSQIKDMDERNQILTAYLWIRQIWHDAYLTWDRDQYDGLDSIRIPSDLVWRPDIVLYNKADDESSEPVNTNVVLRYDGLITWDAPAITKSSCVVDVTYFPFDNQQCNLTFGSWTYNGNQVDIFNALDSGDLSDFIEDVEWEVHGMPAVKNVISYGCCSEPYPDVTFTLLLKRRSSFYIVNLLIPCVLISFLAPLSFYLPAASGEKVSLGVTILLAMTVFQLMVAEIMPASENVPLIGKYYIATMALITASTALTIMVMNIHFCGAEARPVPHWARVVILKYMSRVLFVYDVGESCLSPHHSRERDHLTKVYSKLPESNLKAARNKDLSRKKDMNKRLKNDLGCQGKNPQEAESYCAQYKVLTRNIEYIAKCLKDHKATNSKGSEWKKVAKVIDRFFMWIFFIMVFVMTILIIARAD

Turning to `CSCCCNC(=O)c1ccc(-c2cccc(C(F)(F)F)c2)o1`, the outcome in test [1] was inactive.

Broadly, the EC50 is the concentration giving half of the maximal effect. In the case of `C1C[S+]2CCC(CC2)N1`, the outcome in test [1], in test [2] and in test [5] was inactive. The concentration for a half-maximal effect (EC50) in test [3] was 41 µM. The max activation in test [4] came to 0.98.

As a reminder, the IC50 is the concentration that inhibits the measured activity by half. For `O=C(c1ccc(-c2cccc(C(F)(F)F)c2)o1)N1CC[S+]2CCC1CC2`, the IC50 in test [6] amounted to 5.24 µM. Also, the result in test [7] was Active.

`C[S+]1CCCN(C(=O)c2ccc(-c3cccc(C(F)(F)F)c3)o2)CC1` (stereo unspecified): the Activity result in test [1] (filed as agonist) is “Active; Silent Agonist Activity Observed”. In addition, the IC50 in test [8] was found to be 7.9 µM.

Consider `CC[S+]1CCN(C(=O)c2ccc(-c3cccc(C(F)(F)F)c3)o2)CC1.O=S(=O)([O-])C(F)(F)F`, for which the Activity entry is “Active; Silent Agonist Activity Observed” in test [1] (filed as agonist); “No effect” in the test with Mus musculus [9]; 11.2 in [11]; 100% in the test on Mus musculus [14]; 0.016 in test [15]; “No effect” in the test on Mus musculus [16]. The outcome in the test on Mus musculus [10], with Mus musculus [12] and with Mus musculus [13] was Active. Also, the result in the test on Mus musculus [17] was inactive.

Turning to `C[S+](C)CCNC(=O)c1ccc(-c2cccc(C(F)(F)F)c2)o1`, the outcome in [1] was inactive.

As to `CSCCNC(=O)c1ccc(-c2cccc(C(F)(F)F)c2)o1`, the result in test [1] was inactive.

As to `O=C(c1ccc(-c2cccc(C(F)(F)F)c2)o1)N1CCN2CCC1CC2`, in test [18], the outcome was inactive. For the same molecule, in [19], the Activity entry is reported as “Active; Silent Agonist Activity Observed”.

For the molecule `CC[S+](CC)CCNC(=O)c1ccc(-c2cccc(C(F)(F)F)c2)o1`, the outcome (in the test on Mus musculus [20]; in test [7]) was Active. Also, the outcome with Mus musculus [21] and in the test on Mus musculus [24] was inactive. Also, the IC50 in test [6] was determined as 2.82 µM. Besides, the max activation in test [22] stood at 0.18. Further, in test [23], the EC50 came out at 2380 nM. Besides, the Activity result with Mus musculus [25] and with Mus musculus [26] was “No effect” each time.

On to `CCSCCNC(=O)c1ccc(-c2cccc(C(F)(F)F)c2)o1`, for which the result in test [1] was inactive.

Take `CC[S+]1CCCN(C(=O)c2ccc(-c3cccc(C(F)(F)F)c3)o2)CC1` (stereo unspecified): the IC50 in test [8] was determined as 4.03 µM; in [6], 26.3 µM. The result in test [7] was Active.

Turning to `O=C(c1ccc(-c2cccc(C(F)(F)F)c2)o1)N1CCSCC1`, in [1], the result was inactive.

Consider `O=C(c1ccco1)N1CC[S+]2CCC1CC2`, for which, in [7], the result was Active.

As for `C[S+](C)CCCNC(=O)c1ccc(-c2cccc(C(F)(F)F)c2)o1`, the Activity result in test [1] (filed as agonist) is recorded as “Active; Silent Agonist Activity Observed”.

Regarding `C[S+]1CCN(C(=O)c2ccc(-c3cccc(C(F)(F)F)c3)o2)CC1`, the outcome in test [1] and in test [27] was inactive. Also, the EC50 in test [3] was determined as 2.4 µM. In addition, the max activation in test [4] was 0.26. In test [5] (filed as agonist), the Activity entry is “Active; Silent Agonist Activity Observed”.

On to `O=C(c1ccc(-c2cccc(C(F)(F)F)c2)o1)N1CCCSCC1`, for which the outcome in [1] was inactive.
